Laboratory results as given in patent US12291529B2, “Heterocyclic GLP-1 agonists” (Gasherbrum Bio, Inc., priority 2023, dated 2025).
≈ marks a conversion by molar mass, not a printed value.

Assays:
GLP-1 Receptor = GLP-1 Receptor (Homo sapiens, UniProt P43220); assay: GLP-1R agonist cAMP stimulation assay (HEK293/GLP1R/CRE-LUC cells, Cisbio cAMP dynamic 2 kit); assay type: cell-based
Method in brief: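 HEK293 cells stably expressing human GLP-1R with CRE-Luc reporter, 1000 cells/well in DPBS with 0.5 mM IBMX and BSA. Cells treated with compound (½-log dilutions) for 30 min at 37 °C. cAMP read by HTRF at 665/615 nm; % activity relative to vehicle and maximal control.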

[1] = Caco-2 permeability / efflux study; assay type: in vitro ADME; settings: human; for Papp at 2 h, 10 μM: Caco-2, pH 7.4, 10 μM, 37° C., pH 7.4, 0.5% BSA, read-out: Caco-2 Perm; for efflux ratio at 2 h, 10 μM: Caco-2, pH 7.4, Caco-2 efflux ratio
Protocol: (§1) Incubations with Caco-2 cell monolayers were performed in duplicate in a 96-well Transwell plate. Transport buffer solution (HBSS, 10 mM HEPES, pH 7.4, with 0.5% BSA) containing test article (10 μM), and either the control compounds metoprolol (10 μM), cimetidine (10 μM) and erythromycin (10 μM), was added to appropriate donor wells of the apical or basolateral plate. The transport buffer with DMSO was added to appropriate wells of receiver wells. Following incubation at 37° C. for 2 hours, the cell plates were removed and 50 μL samples from both apical and basolateral sides were transferred into new 96-well plates. Subsequently, 200 μL of acetonitrile containing internal standard was added to all samples to precipitate protein prior to analysis by UPLC-MS/MS. Lucifer yellow was used as a marker to confirm the integrity of the cell monolayers after 2 hours incubation.

FaSSIF solubility = assay type: physicochemical; settings: FaSSIF buffer; for solubility at 4 h: 25 °C, fassif, thermodynamic from solid
Protocol: Stock solution of test article and control compound (chlorpromazine, astemizole, and phenytoin) were prepared in DMSO at 10 mM. 50 μL each of stock solutions were dried down, followed by reconstitution to 1 mM with FaSSIF buffer in the well. The incubation plate was shaked at 25° C., 1,100 rpm for 4 hours. And then, the samples were filtered by using the vacuum manifold. 10 μL aliquots from each well was transferred to a new 96-well plate and adjust the volume to 80 μL with blank buffer. Using a mixture of H2O and acetonitrile containing internal standard (1:1) to dilute the sample 100-fold, 500-fold and 2,500-fold. The samples are evaluated by LC/MS/MS analysis. All compounds were tested in singlet.

[2] = Rat IV/PO PK study, Method A; assay type: in vivo, male Sprague Dawley (SD) rats; settings: for AUC (ng · h/mL)_free form/dose / AUC / Cmax: PO; for AUC (ng · h/mL)_free form/dose: 5 mpk, free form; for half-life / bioavailability / AUC / Cmax: male, Sprague Dawley, plasma; for half-life: 1 mg/kg, elimination half life (IV); for half-life / bioavailability: Method A; for bioavailability: PO vs IV, read-out: Bioavailablility (% F); for AUC / Cmax: *obtained under method 3A
Protocol: Pharmacokinetics (PK) study was conducted on male Sprague Dawley (SD) rats by two delivery routes intravenous (IV) and/or oral gavage (PO). Rats in IV route (n=3) were free access to food and water. Rats in PO route (n=3) were fasted overnight and fed at 4 hrs post dosing. Test article was formulated in solution (10% solutol HS 15 in saline) for IV route and solution or suspension (10% solutol HS 15 in saline/water) for PO route, respectively. On the day of experiment, test article was administered via vein (e.g. foot dorsal vein) injection (commonly at 1 mg/kg and 5 mL/kg) for IV route or via oral gavage (commonly at 2 or 5 mg/kg and 5 mL/kg) for PO route, respectively. Blood samples were collected via serial bleeding at ˜8 time points from 0.083 to 24 hrs post dose. Approximate 150 μL of blood/time point was collected into K2EDTA tube via tail vein or jugular vein. Blood samples were put on wet ice and centrifuged to obtain plasma samples and plasma samples were submitted to LC-MS/MS for sample analysis. Pharmacokinetics parameters, including elimination half life (t1/2) (IV), area under the curve (AUC) and oral bioavailability (F %), etc. were calculated by non-compartmental model using WinNonlin.

[3] = Rat PO PK study, Method B; assay type: in vivo, male Sprague Dawley (SD) rats; settings: for AUC / Cmax: male, Sprague Dawley, plasma; for rat PK dose proportionality of exposure: free form, same formulation; for rat PK exposure compared with C-5 and C-6: 5 to 100 mg/kg
Protocol: Pharmacokinetics (PK) study was conducted on male Sprague Dawley (SD) rats by oral gavage (PO). Rats in PO route (n=3) were free access to food and water. […] On the day of experiment, test article was administered via oral gavage (commonly at 10, 30, or 100 mg/kg, with dose volume as 10 mL/kg). Blood samples were collected via serial bleeding at ˜8 time points from 0.25 to 24 hrs post dose. Approximate 150 μL of blood/time point was collected into KzEDTA tube via tail vein or jugular vein. Blood samples were put on wet ice and centrifuged to obtain plasma samples and plasma samples were submitted to LC-MS/MS for sample analysis. Pharmiacokinetics parameters, including Cmax, and area under the curve (AUC), etc. were calculated by non-compartmental model using WinNonlin.

Caco-2 cell monolayers = assay: Caco-2 permeability / efflux study; assay type: in vitro ADME; settings: 10 μM, 2 hours; for Caco-2 Perm: 37° C., pH 7.4, 0.5% BSA
Protocol: as §1

[4] = Table 3, HEK293/GLP1R/CRE-LUC cells, 30 min
[5] = 30 mg/kg, 20% solutol HS 15 in water
[6] = 100 mg/kg, 20% solutol HS 15 in water

GLP-1 Receptor, sequence (P43220 24-463, species assumed): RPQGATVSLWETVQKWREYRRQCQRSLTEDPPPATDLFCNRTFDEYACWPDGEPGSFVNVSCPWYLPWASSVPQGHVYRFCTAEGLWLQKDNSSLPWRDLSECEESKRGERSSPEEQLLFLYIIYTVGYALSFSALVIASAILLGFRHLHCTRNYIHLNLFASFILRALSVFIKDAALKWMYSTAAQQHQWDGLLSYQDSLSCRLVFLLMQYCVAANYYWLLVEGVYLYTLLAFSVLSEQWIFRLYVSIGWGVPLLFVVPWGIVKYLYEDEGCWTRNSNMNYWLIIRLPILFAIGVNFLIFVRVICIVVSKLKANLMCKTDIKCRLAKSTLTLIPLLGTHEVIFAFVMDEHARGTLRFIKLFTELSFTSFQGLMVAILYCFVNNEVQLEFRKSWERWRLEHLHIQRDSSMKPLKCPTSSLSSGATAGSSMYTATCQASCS

Row | Compound | EC50 (GLP-1 Receptor; Table 4) | Papp at 2 h, 10 μM [1] | efflux ratio at 2 h, 10 μM [1] | solubility at 4 h (FaSSIF solubility) | AUC (ng · h/mL)_free form/dose [2] | half-life [2] | bioavailability [2] | AUC ([2]; 5 mg/kg) | Cmax ([2]; 5 mg/kg) | AUC ([3]; 30 mg/kg, 10% solutol HS 15) | Cmax ([3]; 30 mg/kg, 10% solutol HS 15) | AUC ([3]; 100 mg/kg, 10% solutol HS 15) | Cmax ([3]; 100 mg/kg, 10% solutol HS 15) | EC50 (GLP-1 Receptor; [4]) | rat PK exposure compared with C-5 and C-6 [3] | rat PK dose proportionality of exposure [3] | further results
1 | Cc1cc(-n2nc3c(c2-n2ccn(-c4ccc(S5(=O)=NCCC5)cc4)c2=O)[C@H](C)N(C(=O)c2cc4cc(C5CCOCC5)ccc4n2[C@@]2(c4noc(=O)[nH]4)C[C@@H]2C)CC3)cc(C)c1F (single isomer, unassigned) [Compound 143] | 19 pM |  |  |  |  |  |  |  |  |  |  |  |  | 19 pM |  |  | Caco-2 Perm (Caco-2 cell monolayers): 0.12 ×10⁻⁶ cm/s; Efflux (Caco-2 cell monolayers; Caco-2 efflux ratio): 99.3; Solubility (FaSSIF, μM) (FaSSIF solubility; 25° C., 4 hours): 4.98 µM (≈ 4.41 µg/mL)
2 | CN=S(=O)(c1ccc(-n2ccn(-c3c4c(nn3-c3cc(C)c(F)c(C)c3)CCN(C(=O)c3cc5cc([C@H]6CCOC(C)(C)C6)ccc5n3[C@@]3(c5noc(=O)[nH]5)C[C@@H]3C)[C@H]4C)c2=O)c(F)c1NC)C1CC1 (single isomer, unassigned) [Compound 238] | 110 pM | 0.19 ×10⁻⁶ cm/s | 9.8 | 26 µM (≈ 25.4 µg/mL) | 4,997/5 mpk ng · h/mL | 4.78 h | 25.5% | 7430 ng·h/mL | 1060 ng/mL |  |  |  |  | 110 pM | higher exposure than C-5 and C-6 | good rat PK dose proportionality from 5 to 100 mg/kg | AUC [3, 5]: 67500 ng·h/mL; Cmax [3, 5]: 4710 ng/mL; AUC [3, 6]: 124000 ng·h/mL; Cmax [3, 6]: 8680 ng/mL
3 | CN=S(=O)(c1ccc(-n2ccn(-c3c4c(nn3-c3cc(C)c(F)c(C)c3)CCN(C(=O)c3cc5cc([C@H]6CCOC(C)(C)C6)ccc5n3[C@@]3(c5noc(=O)[nH]5)C[C@@H]3C)[C@H]4C)c2=O)c(F)c1C)C1CC1 (single isomer, unassigned) [Compound 195] | 18 pM | 0.22 ×10⁻⁶ cm/s | 12 | 7.2 µM (≈ 6.91 µg/mL) | 9,545/5 mpk ng · h/mL | 4.3 h | 14% | 5000 ng·h/mL | 774 ng/mL | 51100 ng·h/mL | 3910 ng/mL | 102000 ng·h/mL | 7690 ng/mL | 18 pM | higher exposure than C-5 and C-6 | good rat PK dose proportionality from 5 to 100 mg/kg | 
4 | CN=S(=O)(c1ccc(-n2ccn(-c3c4c(nn3-c3cc(C)c(F)c(C)c3)CCN(C(=O)c3cc5cc([C@H]6CCOC(C)(C)C6)ccc5n3[C@@]3(c5noc(=O)[nH]5)C[C@@H]3C)[C@H]4C)c2=O)c(F)c1)C1CC1 (single isomer, unassigned) [Compound 180] | 30 pM | 0.61 ×10⁻⁶ cm/s | 5.4 | 30 µM (≈ 28.4 µg/mL) | 4,954/5 mpk ng · h/mL | 3 h | 28% | 6100 ng·h/mL | 1790 ng/mL | 97000 ng·h/mL | 8340 ng/mL | 167000 ng·h/mL | 13300 ng/mL | 34 pM | higher exposure than C-5 and C-6 | good rat PK dose proportionality from 5 to 100 mg/kg | 
5 | Cc1cc(-n2nc3c(c2-n2ccn(-c4ccc(S5(=O)=NCCC5)cc4)c2=O)[C@H](C)N(C(=O)c2cc4cc(C5CCOCC5)ccc4n2[C@@]2(c4noc(=O)[nH]4)C[C@@H]2C)CC3)cc(C)c1F (single isomer, unassigned) [Compound 142] | 63 pM |  | > 156 | 8.07 µM (≈ 7.15 µg/mL) |  |  |  |  |  |  |  |  |  | 45 pM |  |  | Caco-2 Perm (Caco-2 cell monolayers): < 0.05 ×10⁻⁶ cm/s
6 | CCS(=O)(=NC)c1ccc(-n2ccn(-c3c4c(nn3-c3cc(C)c(F)c(C)c3)CCN(C(=O)c3cc5cc(C6CCOCC6)ccc5n3[C@@]3(c5noc(=O)[nH]5)C[C@@H]3C)[C@H]4C)c2=O)c(F)c1 (single isomer, unassigned) [Compound 149] | 23 pM | 0.33 ×10⁻⁶ cm/s | 26 | 2.04 µM (≈ 1.85 µg/mL) | 4,276/5 mpk ng · h/mL | 1.6 h | 32% |  |  |  |  |  |  | 23 pM |  |  | 
7 | CCS(=O)(=NC)c1ccc(-n2ccn(-c3c4c(nn3-c3cc(C)c(F)c(C)c3)CCN(C(=O)c3cc5cc([C@H]6CCOC(C)(C)C6)ccc5n3[C@@]3(c5noc(=O)[nH]5)C[C@@H]3C)[C@H]4C)c2=O)c(F)c1 (single isomer, unassigned) [Compound 164] | 24 pM | 0.62 ×10⁻⁶ cm/s | 5.5 | 8.9 µM (≈ 8.31 µg/mL) | 6,094/5 mpk ng · h/mL | 2.4 h | 29.4% | 9540 ng·h/mL | 1880 ng/mL |  |  |  |  | 24 pM | higher exposure than C-5 and C-6 | good rat PK dose proportionality from 5 to 100 mg/kg | AUC [3, 5]: 66200 ng·h/mL; Cmax [3, 5]: 5400 ng/mL; AUC [3, 6]: 173000 ng·h/mL; Cmax [3, 6]: 11200 ng/mL

Second part, led by results:

Row | EC50 (GLP-1 Receptor; Table 4) | Papp at 2 h, 10 μM [1] | efflux ratio at 2 h, 10 μM [1] | solubility at 4 h (FaSSIF solubility) | AUC (ng · h/mL)_free form/dose [2] | half-life [2] | bioavailability [2] | AUC ([2]; 5 mg/kg) | Cmax ([2]; 5 mg/kg) | AUC ([3]; 30 mg/kg, 10% solutol HS 15) | Cmax ([3]; 30 mg/kg, 10% solutol HS 15) | AUC ([3]; 100 mg/kg, 10% solutol HS 15) | Cmax ([3]; 100 mg/kg, 10% solutol HS 15) | EC50 (GLP-1 Receptor; [4]) | rat PK exposure compared with C-5 and C-6 [3] | Compound | rat PK dose proportionality of exposure [3] | further results
8 | 67.5 pM | 0.16 ×10⁻⁶ cm/s | 26 | 4.5 µM (≈ 4.03 µg/mL) | 4,276/5 mpk ng · h/mL | 3.1 h | 47% | 4280 ng·h/mL | 744 ng/mL | 58800 ng·h/mL | 7540 ng/mL | 86000 ng·h/mL | 7480 ng/mL |  |  | Cc1cc(-n2nc3c(c2-n2ccn(-c4ccc5c(cnn5C)c4F)c2=O)[C@H](C)N(C(=O)c2cc4cc([C@H]5CCOC(C)(C)C5)ccn4c2C2(c4noc(=O)[nH]4)CC2)CC3)cc(C2CC2)c1F [Compound C-6, reference compound] |  | 
9 |  | 0.21 ×10⁻⁶ cm/s |  | 0.4 µM (≈ 0.353 µg/mL) |  | 8.1 h | 36% |  |  | 13000 ng·h/mL | 1010 ng/mL |  |  |  |  | Cc1cc(-n2nc3c(c2-n2ccn(-c4ccc5c(cnn5C)c4F)c2=O)[C@H](C)N(C(=O)c2cc4cc([C@H]5CCOC(C)(C)C5)ccc4n2[C@@]2(c4noc(=O)[nH]4)C[C@@H]2C)CC3)cc(C)c1F [Compound C-5, reference compound] | plateaued at 10 mg/kg | AUC ([2]; 2 mg/kg): 4400 ng·h/mL; Cmax ([2]; 2 mg/kg): 573 ng/mL; AUC ([3]; 10 mg/kg, 10% solutol HS 15): 14500 ng·h/mL; Cmax ([3]; 10 mg/kg, 10% solutol HS 15): 1250 ng/mL
10 | 140 pM | 0.18 ×10⁻⁶ cm/s | 16.7 | 5.38 µM (≈ 4.85 µg/mL) |  |  |  |  |  |  |  |  |  |  |  | Cc1cc(-n2nc3c(c2-n2ccn(-c4ccc(N5CCCS5(=O)=O)cc4)c2=O)[C@H](C)N(C(=O)c2cc4cc(C5CCOCC5)ccc4n2[C@@]2(c4noc(=O)[nH]4)C[C@@H]2C)CC3)cc(C)c1F [Compound C-4, reference compound] |  | 
